Results reported in patent publication US20250345426A1, “METHODS FOR MAKING AND USING THERAPEUTIC CELLS” (THE REGENTS OF THE UNIVERSITY OF CALIFORNIA, priority 2022, published 2025).

Legend:
Raji tumor xenografts = test: Raji xenograft in NSG mice treated with inhibitor-preconditioned rituximab CAR-T cells; type: in vivo; conditions: for prolonged median survival compared to vehicle (DMSO)-treated rituximab CAR-T cells: two doses of preconditioned rituximab CAR-T cells
Protocol: FIG. 2A-C. […] (A) Tumor signal (in photons/sec/cm^2/sr) in individual animals as quantified by bioluminescence imaging. […] Statistical significance was determined by Mann-Whitney U test with Holm-Sidak correction for multiple comparisons. * p<0.05, n.s. not statistically significant. (B) Kaplan-Meier survival curve (top) and table of median survival period in days (bottom). (C) Frequency of human CD45+EGFRt+ cell in peripheral blood collected from mice on day 8 after first dose of T-cell infusion. Statistical significance was determined by two-tailed Student's t test with Sidak correction for multiple comparisons. * p<0.05, ** p<0.01.
In vivo studies. Six- to eight-week-old NOD/SCID/IL-2Rγ^null (NSG) mice were obtained from UCLA Department of Radiation and Oncology. The protocol was approved by UCLA Institutional Animal Care and Used Committee. […] Details of the dose and timing of tumor injection, T-cell injection, and tumor re-challenge are indicated in the text and figures. Tumor progression/regression was monitored with an IVIS Illumina III LT Imaging System (PerkinElmer). Blood samples were harvested via retro-orbital bleeding 3 days post T-cell injection and every 10-13 days thereafter. Mice were euthanized at the humane endpoint. Bone marrow, spleen and liver were collected after euthanasia. Tissues were ground and passed through a 100-μm filter followed by red-blood-cell lysis prior to flow-cytometry analysis.

rituximab CAR-T cells [1] = test: Antigen-independent activation and exhaustion marker expression by flow cytometry, rituximab CAR-T cells; type: cell-based, human; conditions: 5 days inhibitor culture, no antigen, vs vehicle (DMSO), CAL-101 1 μM, AZD5363 1 μM
Excerpt: FIG. 1A-G. Pharmacological inhibition of PI3K/AKT pathway modulates antigen-independent CAR-T cell activation. (A) Table of pharmacological inhibitors used during ex vivo expansion of rituximab CAR-T cells (left). Simplified schematic of the PI3K/AKT signaling axis where black arrows represent activation (right). (B) Activation marker expression by CAR^+ T cells in the absence of antigen stimulation after 5 days of pharmacological modulation. Data bars indicate the means of technical triplicates±1 S.D. The bars in FIG. 1B represent data from, untreated, vehicle, CAL-101, AZD5363, Rapamycin, MYCi975, and Betulin, respectively, from left to right. (C) TNF-α production CAR^+ T cells in the absence of antigen stimulation as quantified by intracellular flow cytometry. Data bars indicate the means of technical triplicates±1 S.D. The bars in FIG. 1B and FIG. 1C represent data from, untreated, vehicle, CAL-101, AZD5363, Rapamycin, MYCi975, and Betulin, respectively, from left to right. (D) Proliferation of CAR^+ T cells stained with CellTrace Violet (CTV) dye was assayed after a 4-day culture in the absence of target cells or exogenous cytokines. Data shown in the histogram correspond to one of technical triplicates shown in the bar graph. The bars FIG. 1D represent data from, EGFRt, untreated, vehicle, CAL-101, AZD5363, Rapamycin, MYCi975, and Betulin, respectively, from left to right. (E) % distribution of T-cell subtypes in CAR^+ T cells after 5 days of pharmacological modulation. Data bars indicate the means of technical triplicates±1 S.D. (F) Rituximab CAR-T cell fold expansion after 6 days of inhibitor culture was tracked. T-cell fold expansion was normalized to the untreated control with each data point representing biological replicates collected from healthy donors. The bars FIG. 1F represent data from, EGFRt, vehicle, CAL-101, AZD5363, Rapamycin, MYCi975, and Betulin, respectively, from left to right. (G) A 24-hr lysis assay of CD20 CAR-T cells against Raji target cells at three effector-to-target (E:T) ratios. Data bars indicate the means of technical triplicates±1 S.D. Percent lysis was normalized to cell counts in target-only wells. […] In (B)-(F), results are representative two independent experiments using cells from of two heathy donors. Statistical significance in panels B, C, and D was determined by two-tailed Student's t test with Sidak correction for multiple comparisons. * p<0.05, ** p<0.01, *** p<0.001, n.s. not statistically significant. […]
(§1) Antibody staining for flow-cytometry analysis. EGFRt expression was measured with biotinylated cetuximab (Eli Lilly; biotinylated in-house), followed by PE-conjugated streptavidin (Jackson ImmunoResearch #016-110-084). CAR expression was quantified by surface epitope staining using anti-Fc (Alexa Fluor 488, Jackson ImmunoResearch #709-546-098). Antigen-independent activation-marker expression of CAR-T cells was evaluated by antibody staining for CD137 (PE/Cy7, clone 4B4-1, BioLegend #309818), and PD-1 (FITC, clone EH12.2H7, BioLegend #329904) on Days 18 (i.e., 18 days after Dynabead addition and 11 days after Dynabead removal) and after 5-6 days of inhibitor culture (FIG. 1, FIG. 3). T-cell subtype of CAR-T cells was evaluated by antibody staining for CD45RO (VioBlue®, clone REA611, Miltenyi #130-119-620) and CD62L (APC, clone DREG56, Invitrogen #17-0629-42) after 5-6 days of inhibitor culture (FIG. 1, FIG. 3). […]

rituximab CAR-T cells [2] = test: TNF-α production without antigen stimulation, intracellular flow cytometry, rituximab CAR-T cells; type: cell-based, human; conditions: vs vehicle (DMSO)
Excerpt: (§2) FIG. 1A-G. Pharmacological inhibition of PI3K/AKT pathway modulates antigen-independent CAR-T cell activation. (A) Table of pharmacological inhibitors used during ex vivo expansion of rituximab CAR-T cells (left). Simplified schematic of the PI3K/AKT signaling axis where black arrows represent activation (right). (B) Activation marker expression by CAR^+ T cells in the absence of antigen stimulation after 5 days of pharmacological modulation. Data bars indicate the means of technical triplicates±1 S.D. The bars in FIG. 1B represent data from, untreated, vehicle, CAL-101, AZD5363, Rapamycin, MYCi975, and Betulin, respectively, from left to right. (C) TNF-α production CAR^+ T cells in the absence of antigen stimulation as quantified by intracellular flow cytometry. Data bars indicate the means of technical triplicates±1 S.D. The bars in FIG. 1B and FIG. 1C represent data from, untreated, vehicle, CAL-101, AZD5363, Rapamycin, MYCi975, and Betulin, respectively, from left to right. (D) Proliferation of CAR^+ T cells stained with CellTrace Violet (CTV) dye was assayed after a 4-day culture in the absence of target cells or exogenous cytokines. […] Statistical significance in panels B, C, and D was determined by two-tailed Student's t test with Sidak correction for multiple comparisons. * p<0.05, ** p<0.01, *** p<0.001, n.s. not statistically significant. […]

rituximab CAR-T cells [3] = test: CellTrace Violet proliferation assay without target cells or exogenous cytokines, rituximab CAR-T cells; type: cell-based, human; conditions: 4-day culture, CTV dye, vs vehicle (DMSO)
Protocol: (D) Proliferation of CAR^+ T cells stained with CellTrace Violet (CTV) dye was assayed after a 4-day culture in the absence of target cells or exogenous cytokines. Data shown in the histogram correspond to one of technical triplicates shown in the bar graph. The bars FIG. 1D represent data from, EGFRt, untreated, vehicle, CAL-101, AZD5363, Rapamycin, MYCi975, and Betulin, respectively, from left to right. […] In (B)-(F), results are representative two independent experiments using cells from of two heathy donors. Statistical significance in panels B, C, and D was determined by two-tailed Student's t test with Sidak correction for multiple comparisons. * p<0.05, ** p<0.01, *** p<0.001, n.s. not statistically significant.
For inhibitor analysis, starting on Day 8, T cells were cultured in T-cell media with cytokine support in the presence of 1 μM PI3K8 isoform inhibitor (CAL-101, Apex Biotechnology #A300520)), 1 μM AKT inhibitor (AZD5363, Selleckchem #S8019), 100 nM mTORC1 inhibitor (Rapamycin, LC Laboratories #R-5000), 2 μM c-Myc inhibitor (MYCi975, MedChemExpress #HY-129601), SREBP inhibitor (Betulin, MilliporeSigma #92648), or DMSO as a vehicle control. Each inhibitor molecule was solubilized in DMSO.
Proliferation assay. […] Cultures were passaged as needed, and CTV dilution was analyzed on a MACSQuant VYB flow cytometer after a 4-day co-incubation.

rituximab CAR-T cells [4] = test: T-cell subtype distribution (CD45RO/CD62L staining), rituximab CAR-T cells; type: cell-based, human; conditions: 5 days of pharmacological modulation, vs vehicle
Excerpt: as §2
as §1, with “3).” for “3). T-cell subtype of CAR-T cells was evaluated by antibody staining for CD45RO (VioBlue®, clone REA611, Miltenyi #130-119-620) and CD62L (APC, clone DREG56, Invitrogen #17-0629-42) after 5-6 days of inhibitor culture (FIG. 1, FIG. 3).”

Raji target cells = test: 24-hr lysis assay of inhibitor-treated rituximab CD20 CAR-T cells against Raji; type: cell-based; conditions: three E:T ratios, vs vehicle-treated
Excerpt: FIG. 1A-G. Pharmacological inhibition of PI3K/AKT pathway modulates antigen-independent CAR-T cell activation. (A) Table of pharmacological inhibitors used during ex vivo expansion of rituximab CAR-T cells (left). Simplified schematic of the PI3K/AKT signaling axis where black arrows represent activation (right). (B) Activation marker expression by CAR^+ T cells in the absence of antigen stimulation after 5 days of pharmacological modulation. Data bars indicate the means of technical triplicates±1 S.D. The bars in FIG. 1B represent data from, untreated, vehicle, CAL-101, AZD5363, Rapamycin, MYCi975, and Betulin, respectively, from left to right. (C) TNF-α production CAR^+ T cells in the absence of antigen stimulation as quantified by intracellular flow cytometry. Data bars indicate the means of technical triplicates±1 S.D. The bars in FIG. 1B and FIG. 1C represent data from, untreated, vehicle, CAL-101, AZD5363, Rapamycin, MYCi975, and Betulin, respectively, from left to right. (D) Proliferation of CAR^+ T cells stained with CellTrace Violet (CTV) dye was assayed after a 4-day culture in the absence of target cells or exogenous cytokines. Data shown in the histogram correspond to one of technical triplicates shown in the bar graph. The bars FIG. 1D represent data from, EGFRt, untreated, vehicle, CAL-101, AZD5363, Rapamycin, MYCi975, and Betulin, respectively, from left to right. (E) % distribution of T-cell subtypes in CAR^+ T cells after 5 days of pharmacological modulation. Data bars indicate the means of technical triplicates±1 S.D. (F) Rituximab CAR-T cell fold expansion after 6 days of inhibitor culture was tracked. […] Statistical significance in panels B, C, and D was determined by two-tailed Student's t test with Sidak correction for multiple comparisons. * p<0.05, ** p<0.01, *** p<0.001, n.s. not statistically significant.
Cytotoxicity assay with Raji cells. […] Remaining target cells were quantified by MACSQuant VYB flow cytometer 24-hr post co-incubation.

Row | Compound | prolonged median survival compared to vehicle (DMSO)-treated rituximab CAR-T cells (Raji tumor xenografts; NSG mice, Raji i.v.) [folds] | antigen-independent expression of activation and exhaustion markers (rituximab CAR-T cells [1]) | TNF-α production in the absence of antigen stimulation (rituximab CAR-T cells [2]) | antigen-independent cell division (rituximab CAR-T cells [3]) | fraction of naïve and stem-cell memory T (Tn/scm) cells / T-cell differentiation (rituximab CAR-T cells [4]) | lysis of Raji tumor cells (Raji target cells) | tumor outgrowth / tumor progression (Raji tumor xenografts; NSG mice, Raji i.v., preconditioned rituximab CAR-T cells, bioluminescence, vs vehicle control) | in vivo expansion of CAR-T cells (Raji tumor xenografts; human CD45+EGFRt+ cells in peripheral blood, day 8 after first T-cell dose, vs control)
1 | CC[C@H](Nc1ncnc2[nH]cnc12)c1nc2cccc(F)c2c(=O)n1-c1ccccc1 [CAL-101] | 1.5 | – | – | – | – | – | – | –
2 | CO[C@H]1C[C@@H]2CC[C@@H](C)[C@@](O)(O2)C(=O)C(=O)N2CCCC[C@H]2C(=O)O[C@H]([C@H](C)C[C@@H]2CC[C@@H](O)[C@H](OC)C2)CC(=O)[C@H](C)/C=C(\C)[C@@H](O)[C@@H](OC)C(=O)[C@H](C)C[C@H](C)/C=C/C=C/C=C/1C [rapamycin, Rapamycin] | 1.8 | – | – | – | – | – | – | –
3 | AZD5363 | 1.6 | significantly reduced | significantly reduced | significantly reduced | preserved a greater fraction | clustered together | delayed tumor outgrowth | significantly increased
